# From patent US20090258840A1, “METHOD AND COMPOSITIONS FOR TREATING HEMATOLOGICAL MALIGNANCIES” (Gilead Sciences, Inc., priority 2006, published 2009)
# Like-named read-outs stand apart in the source and are kept apart here.
# Key:
# [1] = dog, in vivo
# Experimental: • Dogs were administered various prodrugs of cpr-PMEDAP as 0.2 mg/kg 30 minute IV infusions. […] Alanine was the L isomer. • Blood was collected into potassium EDTA and separated by centrifugation. Primary blood mononuclear cells (PBMCs) were collected using CPT tubes (sodium citrate). • For analysis, plasma samples were precipitated by addition of 100 μL acetonitrile containing internal standards (D4AP and TDF) to 100 μL of plasma for prodrug analysis. After protein precipitation by centrifugation, 100 μL was transferred into another tube to be dried and then reconstituted in 100 μL water with 0.2% formic acid. An aliquot of 20 μL was injected onto the column for LC/MS/MS analysis. Analysis was done using a 150×2.0 mm, 4 μm Synergi Fusion-RP 80A column (Phenomenex) and a multistage linear gradient from 0.5 to 99% acetonitrile in the presence of 0.2% formic acid at 0.25 mL/min. Analytes were detected using a Sciex API-4000 mass spectrometer using electrospray ionization in positive MRM mode. […] Separate aliquots of cells from each time point resuspended in 100% serum were used to establish the cell quantities in each sample. Cell samples were normalized to 15×10^6 cells per sample. […] 20 μL was injected for LC/MS/MS analysis using a 50×2.0 mm, 4 μm Synergi Hydro-RP 80A column (Phenomenex) and a multistage linear gradient from 0 to 95% acetonitrile in the presence of 0.2% formic acid at 1.0 mL/min. Analytes were detected using a Sciex API-4000 mass spectrometer using electrospray ionization in positive MRM mode. • After drying, samples for dephosphorylation were treated with 1 U of calf intestinal phosphatase (alkaline phosphotase, Sigma) for 2 h in manufacturer provided buffer. Samples were then adjusted to 60% acetonitrile dried and resuspended in 60% acetonitrile containing internal standards (TDF and D4AP) and analyzed for cpr-PMEDAP as described for direct PBMC analysis.
# [2] = test system: PHA-blast (human T-cells); assay: Anti-proliferation in human PHA-lymphoblasts (BrdU/XTT); format: cell-based; details: read-out: Anti-Proliferation EC50
# Molt 4 (T-lymphoid) = assay: Anti-proliferation in Molt 4 cells; format: cell-based, human; details: read-out: Anti-Proliferation EC50
# Experimental: (§1) Compounds were tested using human and canine lymphoblasts (stimulated with a T-cell mitogen phytohaemagglutinin (PHA) or a B-cell mitogen pokeweed mitogen (PWM)), two T-lymphoid cell lines derived from patients with acute lymphocytic leukemia (CEM and Molt-4), two myeloid cell lines derived from patients with acute myelogenous leukemia (KG-1 and HL-60), two B-lymphoid cell lines derived from Burkitt's lymphoma (Daudi and Raji), a B-lymphoid cell line from non-Hodgkin's lymphoma (RL), a T-lymphoid cell line from cutaneous T-lymphoma (PM-1), and a monocytic cell line from histiocytic lymphoma (U937). Lymphoblasts (150,000 cells per microtiter well) and leukemia/lymphoma cell lines (30,000 cells per well) were incubated with 5-fold serial dilutions of compounds for 3 days.
# KG-1 (Myeloid) = assay: Anti-proliferation in KG-1 cells; format: cell-based, human; details: read-out: Anti-Proliferation EC50
# Experimental: as §1
# HL-60 (Myeloid) = assay: Anti-proliferation in HL-60 cells; format: cell-based, human; details: read-out: Anti-Proliferation EC50
# Experimental: as §1
# U937 (Monocytic) = assay: Anti-proliferation in U937 cells; format: cell-based, human; details: read-out: Anti-Proliferation EC50
# [3] = test system: lymphoblasts and leukemia/lymphoma cell lines; assay: Anti-proliferation, EC50 range over the cell panel; format: cell-based; details: range over a variety of lymphoblasts and leukemia/lymphoma cell lines
# Experimental: A variety of compounds that are used for treatment of hematologic malignancies were also tested, including a DNA polymerase inhibitor (ara-C), DNA polymerase/ribonucleotide reductase inhibitors (cladribine, clofarabine, fludarabine, gemcitabine), an adenosine deaminase inhibitor (deoxycoformycin), a DNA methylation inhibitor (decitabine), a […] (doxorubicin), and a mitosis inhibitor (vincristine). All compounds, with the exception of doxorubicin and vincristine, are nucleoside analogs; ara-C, gemcitabine, and decitabine are cytosine analogs and the rest are adenosine analogs. cpr-PMEDAP and PMEG can be considered adenosine and guanosine analogs, respectively. Compounds were tested using human and canine lymphoblasts (stimulated with a T-cell mitogen phytohaemagglutinin (PHA) or a B-cell mitogen pokeweed mitogen (PWM)), two T-lymphoid cell lines derived from patients with acute lymphocytic leukemia (CEM and Molt-4), two myeloid cell lines derived from patients with acute myelogenous leukemia (KG-1 and HL-60), two B-lymphoid cell lines derived from Burkitt's lymphoma (Daudi and Raji), a B-lymphoid cell line from non-Hodgkin's lymphoma (RL), a T-lymphoid cell line from cutaneous T-lymphoma (PM-1), and a monocytic cell line from histiocytic lymphoma (U937).
# Lymphoblasts (150,000 cells per microtiter well) and leukemia/lymphoma cell lines (30,000 cells per well) were incubated with 5-fold serial dilutions of compounds for 3 days. BrdU assay was performed as follows: Lymphoblasts were incubated with 5-fold serial dilutions of compounds in microtiter plates (150,000 cells per well) for 3 days. On Day 3, cells were labeled with 10 μM BrdU for 3 hrs and the amount of BrdU incorporated into cellular DNA was quantified by Enzyme-Linked Immunosorbent Assay (ELISA). Alternatively, cells were incubated with 1 mg/mL XTT reagent (sodium 3,3′-[1[(phenylamino) carbonyl]-3,4-tetrazolium]-bis(4-methoxy-6-nitro) benzene sulfonic acid hydrate) and 1% PMS (phenazine methosulfate) for 2 hrs, and color change (mitochondrial dehydrogenase reduces yellow-colored XTT to orange-colored formazan salt) was quantified. […] Assays were repeated 2-20 times, until the standard error of the mean (SEM) became smaller than 50% of the mean value.
# CEM (T-lymphoid) = assay: Anti-proliferation in CEM cells; format: cell-based, human; details: read-out: Anti-Proliferation EC50
# Experimental: as §1
# Daudi (B-lymphoid) = assay: Anti-proliferation in Daudi cells; format: cell-based, human; details: 3 days incubation
# Experimental: as §1
# Raji (B-lymphoid) = assay: Anti-proliferation in Raji cells; format: cell-based, human; details: 3 days incubation
# Experimental: as §1
# PM-1 (T-lymphoid) = assay: Anti-proliferation in PM-1 cells; format: cell-based, human; details: read-out: Anti-Proliferation EC50
# Experimental: as §1
# RL (B-lymphoid) = assay: Anti-proliferation in RL cells; format: cell-based; details: Homo sapiens, 72 h, 3 days incubation
# Experimental: as §1
# [4] = test system: PWM-blast (human B-cells); assay: Anti-proliferation in human PWM-lymphoblasts (BrdU/XTT); format: cell-based; details: B-cell, 72 h, 3 days incubation
# [5] = test system: PHA-blast (canine T-cells); assay: Anti-proliferation in canine PHA-lymphoblasts (BrdU/XTT); format: cell-based; details: Canis lupus familiaris, T-cell, 72 h, 3 days incubation
# [6] = test system: PWM-blast (canine B-cells); assay: Anti-proliferation in canine PWM-lymphoblasts (BrdU/XTT); format: cell-based; details: Canis lupus familiaris, B-cell, 72 h, 3 days incubation
# [7] = test system: a variety of tumor cell lines; details: in vitro cell culture; cited from earlier work
# Hygroscopicity = format: physicochemical
# [8] = Homo sapiens, 72 h, Molt 4 (T-lymphoid), 3 days incubation
# [9] = Homo sapiens, 72 h, KG-1 (Myeloid), 3 days incubation
# [10] = Homo sapiens, 72 h, HL-60 (Myeloid), 3 days incubation
# [11] = Homo sapiens, U-937, 72 h, U937 (Monocytic), 3 days incubation
# [12] = T-cell, 72 h, PHA-blast (human T-cells), 3 days incubation
# [13] = Homo sapiens, 72 h, CEM (T-lymphoid), 3 days incubation
# [14] = Homo sapiens, 72 h, PM-1 (T-lymphoid), 3 days incubation
# [15] = PHA-blast (human T-cells), 3 days incubation
# [16] = CEM (T-lymphoid), 3 days incubation
# [17] = Molt 4 (T-lymphoid), 3 days incubation
# [18] = KG-1 (Myeloid), 3 days incubation
# [19] = HL-60 (Myeloid), 3 days incubation
# [20] = PM-1 (T-lymphoid), 3 days incubation
# [21] = U937 (Monocytic), 3 days incubation
SMILES,"EC50 ([2]; Homo sapiens, T-cell, 72 h) [nM]",EC50 (Molt 4 (T-lymphoid); [8]) [nM],EC50 (KG-1 (Myeloid); [9]) [nM],EC50 (HL-60 (Myeloid); [10]) [nM],EC50 (U937 (Monocytic); [11]) [nM],EC50 [3] [nM],EC50 (CEM (T-lymphoid); [13]) [nM],"EC50 (Daudi (B-lymphoid); Homo sapiens, 72 h) [nM]","EC50 (Raji (B-lymphoid); Homo sapiens, 72 h) [nM]",EC50 (PM-1 (T-lymphoid); [14]) [nM],EC50 (RL (B-lymphoid)) [nM],further results
CC(C)OC(=O)[C@H](C)NP(=O)(COCCn1cnc2c(NC3CC3)nc(N)nc21)Oc1ccccc1 (stereo partly drawn) [MonoAlaiPr],–,–,–,–,–,–,–,–,–,–,–,PBMC to Plasma ratio [1]: 17
OC[C@H]1O[C@@H](n2cnc3c2NC=NC[C@H]3O)C[C@@H]1O [Deoxy coformycin],> 200000,> 200000,> 200000,> 200000,> 200000,> 200000,–,–,–,–,–,–
"Nc1nc(N)c2ncn(CCOCP(=O)(O)O)c2n1 [PMEDAP, 9-(2-phosphonylmethoxyethyl)-2,6-diaminopurine]",–,27900,7630,21700,24400,–,19900,14000,24900,22700,–,"EC50 [2, 12]: 8950 nM"
Nc1nc(Cl)nc2c1ncn2[C@H]1C[C@H](O)[C@@H](CO)O1 [Cladribine],296,74,89,50,20,–,1170,525,12,40,4,–
Nc1ccn([C@@H]2O[C@H](CO)[C@@H](O)C2(F)F)c(=O)n1 [Gemcitabine],–,8.5,5.7,8.6,31,3.4 to 18,21,6,3.4,16,18,"EC50 [2, 12]: 9.6 nM"
Nc1nc(Cl)nc2c1ncn2[C@@H]1O[C@H](CO)[C@@H](O)[C@@H]1F [Clofarabine],62,25,60,73,37,25 to 418,418,221,19.4,145,49.5,EC50 [4]: 126 nM; EC50 [5]: 146 nM; EC50 [6]: 93 nM
"Nc1nc2c(ncn2CCOCP(=O)(O)O)c(=O)[nH]1 [PMEG, 9-(2-phosphonylmethoxyethyl)guanine]",–,–,–,–,–,–,–,–,–,–,–,"EC50 [2, 15]: 1680 nM; EC50 (CEM (T-lymphoid); [16]): 5200 nM; EC50 (Molt 4 (T-lymphoid); [17]): 1740 nM; EC50 (KG-1 (Myeloid); [18]): 2930 nM; EC50 (HL-60 (Myeloid); [19]): 3920 nM; EC50 (Daudi (B-lymphoid)): 994 nM; EC50 (Raji (B-lymphoid)): 2720 nM; EC50 (PM-1 (T-lymphoid); [20]): 4020 nM; EC50 (U937 (Monocytic); [21]): 4010 nM"
COc1cccc2c1C(=O)c1c(O)c3c(c(O)c1C2=O)C[C@@](O)(C(=O)CO)C[C@@H]3O[C@H]1C[C@H](N)[C@H](O)[C@H](C)O1 [Doxorubicin],7.6,1.2,28,24,13,–,–,3.8,8.6,29.5,25,–
CC[C@]1(O)C[C@H]2CN(CCc3c([nH]c4ccccc34)[C@@](C(=O)OC)(c3cc4c(cc3OC)N(C=O)[C@H]3[C@@](O)(C(=O)OC)[C@H](OC(C)=O)[C@]5(CC)C=CCN6CC[C@]43[C@@H]65)C2)C1 [Vincristine],–,0.4,3.2,2,2.8,0.6 to 5.3,2,0.6,2.5,5.3,1.4,"EC50 [2, 12]: 2.4 nM; EC50 [4]: 0.9 nM; EC50 [5]: 0.9 nM; EC50 [6]: 0.9 nM"
C[C@H](NP(=O)(COCCn1cnc2c(NC3CC3)nc(N)nc21)Oc1ccccc1)C(=O)OC(C)(C)C (stereo partly drawn) [MonoAlatBu],–,–,–,–,–,–,–,–,–,–,–,PBMC to Plasma ratio [1]: 12
"C[C@H](NP(=O)(COCCn1cnc2c(NC3CC3)nc(N)nc21)Oc1ccccc1)C(=O)OC(C)(C)C (single isomer, unassigned) [MonoAlatBu(A)]",–,–,–,–,–,–,–,–,–,–,–,PBMC to Plasma ratio [1]: 19
"Nc1nc(NC2CC2)c2ncn(CCOCP(=O)(O)O)c2n1 [GS-8369, 9-(2-phosphonylmethoxyethyl)-N^6-cyclopropyl-2,6-diaminopurine]",–,–,–,–,–,–,–,–,–,–,–,"EC50 [2, 15]: 2350 nM; EC50 (CEM (T-lymphoid); [16]): 2220 nM; EC50 (Molt 4 (T-lymphoid); [17]): 1470 nM; EC50 (KG-1 (Myeloid); [18]): 1110 nM; EC50 (HL-60 (Myeloid); [19]): 1610 nM; EC50 (Daudi (B-lymphoid)): 1840 nM; EC50 (PM-1 (T-lymphoid); [20]): 6720 nM; EC50 (U937 (Monocytic); [21]): 4480 nM; antiproliferative and differentiation-inducing effect [7]: effective"
CC(C)OC(=O)[C@H](C)NP(=O)(COCCn1cnc2c(NC3CC3)nc(N)nc21)N[C@@H](C)C(=O)OC(C)C [BisAlaiPr],–,–,–,–,–,–,–,–,–,–,–,PBMC to Plasma ratio [1]: 1.2
CCOC(=O)C(C)NP(=O)(COCCn1cnc2c(NC3CC3)nc(N)nc21)NC(C)C(=O)OCC (stereo not drawn) [Compound 1],–,27.3,1040,214,394,27 to 1040,156,27,89,125,78,"EC50 [2, 12]: 135 nM; EC50 [4]: 42 nM; EC50 [5]: 30 nM; EC50 [6]: 14 nM; hygroscopicity (Hygroscopicity): hygroscopic"
"Nc1ccn([C@@H]2O[C@H](CO)[C@@H](O)[C@@H]2O)c(=O)n1 [Ara-C, Cytarabine]",1820,23,56,212,38,23 to 1820,143,209,23,194,610,–
Nc1nc(F)nc2c1ncn2[C@@H]1O[C@H](CO)[C@@H](O)[C@@H]1O [Fludarabine des-phosphate],1100,1550,4520,1770,300,–,> 40000,–,–,12900,–,–
Nc1ncn([C@H]2C[C@H](O)[C@@H](CO)O2)c(=O)n1 [Decitabine],204,–,–,–,–,–,–,–,–,–,–,"EC50 (CEM (T-lymphoid); Homo sapiens, T-lymphoid, 72 h): 3000 nM; EC50 (Molt 4 (T-lymphoid); Homo sapiens, MOLT-4, 72 h): 580 nM; EC50 (KG-1 (Myeloid); Homo sapiens, KG-1, 72 h): 83 nM; EC50 (HL-60 (Myeloid); Homo sapiens, HL-60, 72 h): 3830 nM; EC50 (PM-1 (T-lymphoid); Homo sapiens, T-lymphoid, 72 h): > 20000 nM; EC50 (U937 (Monocytic); Homo sapiens, U-937, 72 h): 77 nM"
